Test results as given in patent US8232407B2, “Nitrogenous heterocyclic compounds with insecticidal activity, and the preparation and use thereof” (East China University of Science and Technology, priority 2008, dated 2012).

Experiments:
Format in all cases: in vivo
Plutella xylostella = experiment: Insecticidal activities to diamondback moth, feeding dipped leaves; details: for Plutella xylostella Mortality (%) 500 ppm: in vivo
Outline: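 Mortality was scored 24 h after larvae of Plutella xylostella (10 per treatment, 3 repeats) fed on cabbage leaves immersed 3 s in test solution and dried at room temperature. It was computed relative to survivors in a water-treated control.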

Aphis craccivoral = experiment: Insecticidal activities to aphids, immersion method; details: for Aphis craccivoral Mortality (%) 500 ppm: in vivo
Outline: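 Immersion assay: compound diluted from 10 g/L DMF stock to 500 ppm in 0.2 mL/L Triton X-100, sprout-feeding wingless adults dipped 5 s. Kept at 23° C, three repeats; 24 h mortality calculated relative to surviving Triton-treated controls.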

Nilaparvata lugens = experiment: Insecticidal activities to plant hopper, spraying method; details: for Nilaparvata lugens Mortality (%) 500 ppm: in vivo
Outline: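 Spray test: acetone solutions of 500 down to 0.79 ppm, 2 ml per tumbler holding 10 planthoppers introduced 6 h earlier, triplicate, aqueous acetone as control. Mortality at 24 h calculated from survivors relative to control.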

[1] = system: Pseudaletia separate Walker; experiment: Insecticidal activities to armyworm, leaf dipping and feeding
Outline: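 Armyworms (10 per tumbler, 3 replicates) ate fresh maize leaves that had been immersed for 3 seconds in compound solutions of 1.57-500 ppm in acetone, or in aqueous acetone for controls. Kills were scored at 24 h, and mortality was calculated relative to survivors in the control group.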

Structure (SMILES) | Plutella xylostella Mortality (%) 500 ppm (Plutella xylostella) [%] | Aphis craccivoral Mortality (%) 500 ppm (Aphis craccivoral) [%] | Nilaparvata lugens Mortality (%) 500 ppm (Nilaparvata lugens) [%] | Pseudaletia separate Walker Mortality (%) 500 ppm ([1]; in vivo) [%] | mortality at 500 ppm (Plutella xylostella; Plutella xylostella, 24 h, read-out: Plutella xylostella Mortality (%) 500 ppm) [%] | mortality at 500 ppm (Aphis craccivoral; Aphis, read-out: Aphis craccivoral Mortality (%) 500 ppm) [%] | mortality at 500 ppm (Nilaparvata lugens; Nilaparvata lugens, 24 h, read-out: Nilaparvata lugens Mortality (%) 500 ppm) [%] | Pseudaletia separate Walker Mortality (%) 500 ppm ([1]; 500 ppm, leaf dipping and feeding, counted after 24 hours) [%]
O=[N+]([O-])C(=Cc1ccc(CO)o1)C1=NCCN1Cc1cnc(Cl)s1 [Compound 82] | 100 | 100 | 100 | 100 |  |  |  | 
O=[N+]([O-])C(=Cc1cccs1)C1=NCCN1Cc1cnc(Cl)s1 [Compound 83] | 100 | 100 | 100 | 100 |  |  |  | 
O=[N+]([O-])C(=Cc1ccsc1)C1=NCCN1Cc1cnc(Cl)s1 [Compound 84] | 100 | 100 | 100 | 100 |  |  |  | 
O=[N+]([O-])C(=Cc1ccc([N+](=O)[O-])s1)C1=NCCN1Cc1cnc(Cl)s1 [Compound 85] | 100 | 100 | 100 | 100 |  |  |  | 
O=[N+]([O-])C(=Cc1ccc(Cl)s1)C1=NCCN1Cc1cnc(Cl)s1 [Compound 86] | 100 | 100 | 100 | 100 |  |  |  | 
O=[N+]([O-])C(=Cc1ccc(Br)s1)C1=NCCN1Cc1cnc(Cl)s1 [Compound 87] | 100 | 100 | 100 | 100 |  |  |  | 
O=[N+]([O-])C(=Cc1cc(Cl)cs1)C1=NCCN1Cc1cnc(Cl)s1 [Compound 88] | 100 | 100 | 100 | 100 |  |  |  | 
O=[N+]([O-])C(=Cc1cc(Br)cs1)C1=NCCN1Cc1cnc(Cl)s1 [Compound 89] | 100 | 100 | 100 | 97 |  |  |  | 
O=[N+]([O-])/C(=C/c1ccco1)C1=NCCN1CC1CCOC1 (stereo not drawn) [Compound 91, 2-(2-(furan-2-yl)-1-nitrovinyl)-1-((tetrahydrofuran-3-yl)methyl)-4,5-dihydro-1H-imidazole] |  |  |  |  | 100 | 87 | 100 | 98
O=[N+]([O-])C(=Cc1ccoc1)C1=NCCN1CC1CCOC1 (stereo not drawn) [Compound 92] | 100 | 80 | 100 | 100 |  |  |  | 
O=[N+]([O-])C(=Cc1ccc([N+](=O)[O-])o1)C1=NCCN1CC1CCOC1 (stereo not drawn) [Compound 93] | 96 | 78 | 87 | 100 |  |  |  | 
O=[N+]([O-])C(=Cc1ccc(Cl)o1)C1=NCCN1CC1CCOC1 (stereo not drawn) [Compound 94] | 83 | 46 | 77 | 77 |  |  |  | 
